From patent US20190359645A1, “2'3'-CYCLIC DINUCLEOTIDES COMPRISING CARBOCYCLIC NUCLEOTIDE” (Institute of Organic Chemistry and Biochemistry ASCR, V.V.I., priority 2018, published 2019) come the findings set out here.

Like-named read-outs stand apart in the source and are kept apart here.

This assay has as its target T1, AQ STING (G230A-R293Q) (Homo sapiens, UniProt Q86WV6, G230A/H232R/R293Q).
T1 construct: truncated human WT STING or AQ STING (amino acid residues 140-343); 8xHis (N, cleaved yes); SUMO (N, cleaved yes); made in house; host or cells: E. coli Rosetta-gami B (DE3)
In words: Differential scanning fluorimetry (DSF) with AQ STING. The assay is classed as binding. The note with it: for ΔTm at 150 µM: read-out: DSF ΔTm AQ STING. An excerpt: Both WT and AQ human STING (G230A-R^293Q) cDNA were amplified by the use of PCR (Phusion® High-Fidelity DNA Polymerase, cat. # M0530S, NEB, Ipswich, USA) using oligonucleotides hSTING140-BamH-For ([…]) (SEQ ID NO:5) and hSTING379-Not-Rev3 ([…]) (SEQ ID NO:6) from pUNOI-hSTING-WT (cat. # punol-hstingwt, InvivoGen, San Diego, USA) and pUNO1-hSTING-HAQ plasmids (punol-hsting-haq, InvivoGen, San Diego, USA). Purified PCR products were cleaved with restriction enzymes BamHI (cat. # R^0136S, NEB, Ipswich, USA) and NotI (cat. # R^0189S, NEB, Ipswich, USA) and cloned into the pSUMO vector linearized with the identical enzymes. Plasmid pSUMO was created by introducing 8-His-SUMO sequence between NdeI and BamHI sites of pHis-parallel2 plasmid (Clontech, Moutain View, USA). pSUMO-STING WT or pSUMO-STING AQ plasmids thus encoded truncated human WT STING or AQ STING (amino acid residues 140-343) with N-terminal 8×His and SUMO tag.
The recombinant WT STING and AQ STING proteins were overexpressed in Rosetta-gami B (DE3) competent cells (cat. #71136-3, Merck Millipore, Billerica, USA). Bacterial pellets were re-suspended in ice-cold lysis buffer containing 50 mmol·l^−1 TrisCl (cat. # T1503, Sigma Aldrich, Czech Republic) pH 8.0, 300 mmol·l^−1 NaCl, 3 mmol·l^−1 (3-mercaptoethanol (cat. # M6250, Sigma Aldrich, Czech Republic), 10% glycerol (cat. #G5516, Sigma Aldrich, Czech Republic) and 20 mmol·l^−1 imidazole (cat. #15513, Sigma Aldrich, Czech Republic) using Dounce homogenizer. DNase I (cat. # D5025, Sigma Aldrich, Czech Republic) and RNase A (cat. # R^6513, Sigma Aldrich, Czech Republic) were added (final concentration 50 μg/ml) together with MgCl2 (final concentration 5 mmol·l^−1) to the homogenate and bacteria were lysed using French Press G-M™ High-Pressure Cell Press Homogenizer (1500 psi, 3 cycles). Lysate was spun 30,000 g for 20 minutes and supernatant was gently stirred with Ni-NTA resin (cat. #745400.25 Macherey-Nagel, Duren, Germany) for 30 minutes. The resin was poured into a chromatography column, washed with 50 ml buffer A (50 mmol·l^−1 TrisCl (pH 8.0), 800 mmol·l^−1 NaCl, 3 mmol·l^−1β-mercaptoethanol; 10% glycerol; 20 mmol·l^−1 imidazole) and 8-His-SUMO tagged STING proteins were eluted with 15 ml buffer A containing 300 mmol·l^−1 imidazole. The eluted proteins were cleaved with recombinant SUMO protease (80 pig/ml of protein solution, cat. #12588018, ThermoFisher, Waltham, USA). The proteins were further purified by size exclusion chromatography using HiLoad 16/60 Superdex 75 (cat. #28989333, GE Healthcare Bio-Sciences, Pittsburgh, USA) in 50 mmol·l^−1 Tris C1 buffer pH 7.4 containing 150 mmol·l^−1 NaCl, and 10% glycerol. Proteins were concentrated with Amicon® Ultra-15 10 K device (cat. # UFC901008, Merck Millipore, Billerica, USA) and flash frozen in liquid N2.
WT and AQ allelic forms of STING protein were diluted to the final concentration 0.1 mg/ml in 100 mmol·l^−1 TrisCl buffer pH 7.4 containing, 150 mmol·l^−1 NaCl, 1:500 SYPRO Orange (cat. # S6650, ThermoFisher, Waltham, USA) and 150 μM CDN or water. 20 μL solutions of the reaction mixtures were pipetted in triplicates into 96 well optical reaction plates and thermal denaturation of samples were performed on real time PCR cycler (LightCycler® 480 Instrument II—Roche, Basel, Switzerland). The first derivative of the thermal denaturation curves was performed to calculate denaturing temperatures of STING-CDN complexes and STING apoproteins. The thermal shift for each CDN was calculated by subtracting the average denaturing temperature of STING apoprotein from the average denaturing temperature of STING CDN complex.

Setting [1] is: thermal shift, truncated human AQ STING 0.1 mg/ml, 150 μM CDN.

T1 sequence (Q86WV6 140-343 G230A/H232R/R293Q): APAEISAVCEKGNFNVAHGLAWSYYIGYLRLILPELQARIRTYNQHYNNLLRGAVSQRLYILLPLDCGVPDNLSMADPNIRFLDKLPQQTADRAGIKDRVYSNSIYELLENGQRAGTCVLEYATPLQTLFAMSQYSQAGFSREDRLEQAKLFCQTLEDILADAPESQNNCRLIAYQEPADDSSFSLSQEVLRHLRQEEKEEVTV

Broadly, the ΔTm is the change in melting temperature against a reference sample. On to `Cc1cn([C@@H]2O[C@@H]3COP(=O)(O)OC4C(O)[C@@H](COP(=O)(O)OC3C2O)C[C@H]4n2cnc3c(=O)[nH]c(N)nc32)c2ncnc(N)c12` (stereo partly drawn) [Compound 113, (6R,8R,15R,17R)-8-{4-amino-5-methyl-7H-pyrrolo[2,3-d]pyrimidin-7-yl}-17-(2-amino-6-oxo-6,9-dihydro-1H-purin-9-yl)-3,9,12,18-tetrahydroxy-2,4,7,11,13-pentaoxa-3λ^5,12λ^5-diphosphatricyclo[13.2.1.0^6,10]octadecane-3,12-dione], for which the ΔTm at 150 µM under setting [1] was 11.6 °C.
Turning to `Nc1nc2c(ncn2[C@@H]2C[C@@H]3COP(=O)(O)OC4C(F)[C@H](n5cnc6c(N)nc(F)nc65)O[C@@H]4COP(=O)(O)OC2C3O)c(=O)[nH]1` (stereo partly drawn) [Compound 111, (6R,8R,15R,17R)-8-(6-amino-2-fluoro-9H-purin-9-yl)-17-(2-amino-6-oxo-6,9-dihydro-1H-purin-9-yl)-9-fluoro-3,12,18-trihydroxy-2,4,7,11,13-pentaoxa-3λ^5,12λ^5-diphosphatricyclo[13.2.1.0^6,10]octadecane-3,12-dione], the ΔTm at 150 µM under setting [1] was 13 °C.
On the same count and under the same terms, the same measure for `Nc1ncnc2c1ncn2[C@@H]1O[C@@H]2COP(=O)(O)OC3C(O)[C@@H](COP(=O)(O)OC2C1O)C[C@H]3n1cnc2c(=O)[nH]cnc21` (stereo partly drawn) [Compound 120, (6R,8R,15R,17R)-8-(6-amino-9H-purin-9-yl)-3,9,12,18-tetrahydroxy-17-(6-oxo-6,9-dihydro-1H-purin-9-yl)-2,4,7,11,13-pentaoxa-3λ^5,12λ^5-diphosphatricyclo[13.2.1.0^6,10]octadecane-3,12-dione]: 18.3 °C.
For the molecule `Nc1nc2c(ncn2[C@@H]2C[C@@H]3COP(=O)(O)OC4C(O)[C@H](n5cnc6c(S)ncnc65)O[C@@H]4COP(=O)(O)OC2C3O)c(=O)[nH]1` (stereo partly drawn) [Compound 107, (6R,8R,15R,17R)-17-(2-amino-6-oxo-6,9-dihydro-1H-purin-9-yl)-3,9,12,18-tetrahydroxy-8-(6-sulfanyl-9H-purin-9-yl)-2,4,7,11,13-pentaoxa-3λ^5,12λ^5-diphosphatricyclo[13.2.1.0^6,10]octadecane-3,12-dione], the ΔTm at 150 µM under setting [1] was 7.9 °C.
On the same count and under the same terms, under `Nc1nc2c(ncn2[C@@H]2C[C@@H]3COP(=O)(O)OC4C(O)[C@H](n5nnc6c(N)ncnc65)O[C@@H]4COP(=O)(O)OC2C3O)c(=O)[nH]1` (stereo partly drawn) [Compound 116, (6R,8R,15R,17R)-8-{7-amino-3H-[1,2,3]triazolo[4,5-d]pyrimidin-3-yl}-17-(2-amino-6-oxo-6,9-dihydro-1H-purin-9-yl)-3,9,12,18-tetrahydroxy-2,4,7,11,13-pentaoxa-3λ^5,12λ^5-diphosphatricyclo[13.2.1.0^6,10]octadecane-3,12-dione] stands 8.9 °C; under `Nc1ncnc2c1ncn2[C@@H]1O[C@@H]2COP(=O)(O)O[C@@H]3[C@@H](F)[C@@H](COP(=O)(O)O[C@H]2[C@H]1O)C[C@H]3n1cnc2c(=O)[nH]cnc21` [Compound 126, (1S,6R,8R,9R,10S,15R,17R,18S)-8-(6-amino-9H-purin-9-yl)-18-fluoro-3,9,12-trihydroxy-17-(6-oxo-6,9-dihydro-1H-purin-9-yl)-2,4,7,11,13-pentaoxa-3λ^5,12λ^5-diphosphatricyclo[13.2.1.0^6,10]octadecane-3,12-dione], 15.8 °C.
Still for that read-out and setting: the same measure for `Nc1nc(N)c2ncn([C@@H]3O[C@@H]4COP(=O)(O)OC5C(O)[C@@H](COP(=O)(O)OC4C3F)C[C@H]5n3cnc4c(=O)[nH]c(N)nc43)c2n1` (stereo partly drawn) [Compound 117, (6R,8R,15R,17R)-17-(2-amino-6-oxo-6,9-dihydro-1H-purin-9-yl)-8-(2,6-diamino-9H-purin-9-yl)-9-fluoro-3,12,18-trihydroxy-2,4,7,11,13-pentaoxa-3λ^5,12λ^5-diphosphatricyclo[13.2.1.0^6,10]octadecane-3,12-dione]: 17 °C; for `CNc1ncnc2c1ncn2[C@@H]1O[C@@H]2COP(=O)(O)OC3C(O)[C@@H](COP(=O)(O)OC2C1O)C[C@H]3n1cnc2c(=O)[nH]c(N)nc21` (stereo partly drawn) [Compound 108, (6R,8R,15R,17R)-17-(2-amino-6-oxo-6,9-dihydro-1H-purin-9-yl)-3,9,12,18-tetrahydroxy-8-[6-(methylamino)-9H-purin-9-yl]-2,4,7,11,13-pentaoxa-3λ^5,12λ^5-diphosphatricyclo[13.2.1.0^6,10]octadecane-3,12-dione]: 12.5 °C; for `Nc1ncc2ncn([C@@H]3O[C@@H]4COP(=O)(O)OC5C(O)[C@@H](COP(=O)(O)OC4C3O)C[C@H]5n3cnc4c(=O)[nH]c(N)nc43)c2n1` (stereo partly drawn) [Compound 106, (6R,8R,15R,17R)-17-(2-amino-6-oxo-6,9-dihydro-1H-purin-9-yl)-8-(2-amino-9H-purin-9-yl)-3,9,12,18-tetrahydroxy-2,4,7,11,13-pentaoxa-3λ^5,12λ^5-diphosphatricyclo[13.2.1.0^6,10]octadecane-3,12-dione]: 13.8 °C.
In the case of `Nc1ncnc2c1ncn2[C@@H]1O[C@@H]2COP(=O)(S)O[C@@H]3[C@H](F)[C@@H](COP(=O)(S)O[C@H]2[C@H]1F)C[C@H]3n1cnc2c(=O)[nH]cnc21` (single isomer, unassigned) [Compound 128c], the “DSF ΔTm AQ STING” value under setting [1] is 18.2 °C.
For the molecule `Nc1nc2c(ncn2[C@@H]2C[C@@H]3COP(=O)(O)OC4C(O)[C@H](n5cnc6c(N)ncnc65)O[C@@H]4COP(O)(=S)OC2C3O)c(=O)[nH]1` (stereo partly drawn) [Compound 101, 2-amino-9-[(6R,8R,15R,17R)-8-(6-amino-9H-purin-9-yl)-3,9,12,18-tetrahydroxy-12-oxo-3-sulfanylidene-2,4,7,11,13-pentaoxa-3λ^5,12λ^5-diphosphatricyclo[13.2.1.0^6,10]octadecan-17-yl]-6,9-dihydro-1H-purin-6-one], the thermal shift (ΔTm) at 150 µM was found to be 19.8 °C.
In the case of `Nc1nc2c(ncn2[C@@H]2C[C@@H]3COP(=O)(O)OC4C(O)[C@H](n5cnc6c(N)nc(F)nc65)O[C@@H]4COP(=O)(O)OC2C3O)c(=O)[nH]1` (stereo partly drawn) [Compound 103, (6R,8R,15R,17R)-8-(6-amino-2-fluoro-9H-purin-9-yl)-17-(2-amino-6-oxo-6,9-dihydro-1H-purin-9-yl)-3,9,12,18-tetrahydroxy-2,4,7,11,13-pentaoxa-3λ^5,12λ^5-diphosphatricyclo[13.2.1.0^6,10]octadecane-3,12-dione], the ΔTm at 150 µM under setting [1] stood at 15.2 °C.
For `Nc1ncnc2c1ncn2[C@@H]1O[C@@H]2COP(=O)(O)O[C@@H]3[C@H](F)[C@@H](COP(=O)(O)O[C@H]2[C@H]1F)C[C@H]3n1cnc2c(=O)[nH]cnc21` [Compound 127], under setting [1], the ΔTm at 150 µM worked out at 16.8 °C.
Same read-out and setting: the same measure for `Nc1nc2c(ncn2[C@@H]2C[C@@H]3COP(=O)(O)OC4C(O)[C@H](n5cnc6c(Cl)ncnc65)O[C@@H]4COP(=O)(O)OC2C3O)c(=O)[nH]1` (stereo partly drawn) [Compound 115, (6R,8R,15R,17R)-17-(2-amino-6-oxo-6,9-dihydro-1H-purin-9-yl)-8-(6-chloro-9H-purin-9-yl)-3,9,12,18-tetrahydroxy-2,4,7,11,13-pentaoxa-3λ^5,12λ^5-diphosphatricyclo[13.2.1.0^6,10]octadecane-3,12-dione]: 14.2 °C.
